The source of these data is US6699681B2, “Endothelin converting enzymes and the amyloid β peptide” (Mayo Foundation for Medical Education and Research, priority 2000, dated 2004).

The test system of test [1] is H4 neuroglioma cells. Briefly: Extracellular Aβ after treatment of H4 cells with metalloprotease inhibitors. It counts as cell-based, human. On the procedure: (§1) Human and guinea pig Aβ40 or Aβ42 was measured in plasma by sandwich ELISA as previously described (Suzuki et al., 1994, Science, 264:1336-1340) using the BAN-50/BA-27 or BAN-50/BC-05 antibody systems, respectively (Takeda; Japan). Hamster Aβ40- or Aβ42-derived from CHO cells was measured using the BNT-77/BA-27 or BNT-77/BC-05 antibody systems, respectively. Aβ concentration in samples was determined by comparison to synthetic Aβ40 or Aβ42 standards (Bachem, Switzerland). Data was obtained from triplicate wells.
(§2) In particular, the sandwich ELISA used herein was performed as follows: 96-well microtiter plates were coated overnight at 4° C. with 100 μl of a 5 μg/ml dilution of primary antibody in sodium carbonate coating buffer (SCCB; 0.1 M Na2CO3, pH 9.6). Plates were blocked overnight at 4° C. with 300 μl of BLOCKAGE Solution (PBS+1.0% BLOCKAGE (Snow Brand Milk Products, Japan), 0.05% NaN3, pH 7.4). Samples for analysis and synthetic Aβ standards (Bachem, Switzerland) were diluted in buffer EC (0.02 M NaH2PO4, 0.002 M EDTA, 0.4 M NaCl, 0.2% BSA, 0.05% CHAPS, 0.04% BLOCKAGE, 0.05% NaN3, pH 7.0) and allowed to incubate on the plates overnight at 4° C. Plates were washed twice with PBS (8 mM Na2HPO4, 1.5 mM KH2PO4, 139 mM NaCl, 2.7 mM KCl, pH 7.4) and 100 μl of secondary antibody directly coupled to HRP (EZ-LINK™ Plus Activated Peroxidase kit (contents of kit: peroxidase, 5 M sodium cyanoborohydride solution (NaBH3CN), quenching buffer (3 M ethanolamine, pH 9.0), BupH™ phosphate buffered saline, Buph™ carbonate-bicarbonate buffer), according to manufacturers directions; Pierce Chemical Co., Rockford, Ill.) was allowed to bind either 4 hrs at room temperature or overnight at 4° C. Plates were then washed twice with PBS containing 0.05% Tween 20 followed by two additional washes in PBS. Detection was performed using TMB (3,3′,5,5′-tetramethyl-benzidine) as an HRP substrate according to the manufacturer's specifications (Kirkegaard & Perry Laboratories (KPL), Gaithersburg, Md.) and the reaction stopped by the addition of 100 μl of 1N H3PO4. Plates were read at 450 nm in a SpectraMax Plus spectrophotometer (Molecular Devices; Sunnyvale, Calif.) and analyzed by SOFTmax® PRO software. Aβ40 or Aβ42 were quantitated by comparison with the values obtained for each synthetic Aβ standard from the same plate.
Cells were passaged into 6-well plates one day prior to treatment and grown to confluence. […] After treatment, the culture medium was harvested, spun at 14,000 xg, and the supernatant analyzed for Aβ40 or Aβ42 using sandwich ELISA and for secreted APP using Western blot. […] Bound antibody was detected by incubation with the appropriate HRP-linked secondary antibody (Amersham, Uppsala, Sweden) using ECL™ Western blotting reagents (Amersham) followed by exposure to X-ray film. […]

For test [2], the system named is CHO cells. Briefly: Aβ in conditioned medium of CHO cells (lack ECE activity) treated with phosphoramidon. It counts as cell-based, hamster. The note with it: non-transfected CHO cells; high concentrations of phosphoramidon. As to the method: as §1
In particular, the sandwich ELISA used herein was performed as follows: 96-well microtiter plates were coated overnight at 4° C. with 100 μl of a 5 μg/ml dilution of primary antibody in sodium carbonate coating buffer (SCCB; 0.1 M Na2CO3, pH 9.6). […] Plates were read at 450 nm in a SpectraMax Plus spectrophotometer (Molecular Devices; Sunnyvale, Calif.) and analyzed by SOFTmax® PRO software. Aβ40 or Aβ42 were quantitated by comparison with the values obtained for each synthetic Aβ standard from the same plate.
Cells were passaged into 6-well plates one day prior to treatment and grown to confluence. […] After treatment, the culture medium was harvested, spun at 14,000 xg, and the supernatant analyzed for Aβ40 or Aβ42 using sandwich ELISA and for secreted APP using Western blot. […]

Test [3] deals with ECE-transfected CHO cells. Briefly: Aβ concentration in conditioned medium of ECE-1a- or ECE-1b-transfected CHO cells. Format: cell-based, hamster. On the procedure:
as §1
as §2, with “Detection was performed using TMB (3,3′,5,5′-tetramethyl-benzidine) as an HRP substrate according to the manufacturer's specifications (Kirkegaard & Perry Laboratories (KPL), Gaithersburg, Md.) and the reaction stopped by the addition of 100 μl of 1N H3PO4.” left out, “plate. […]” for “plate.”

The subject of test [4] is neuronal cell lines. The note with it: previously shown; cited from earlier work.

Each structure is given as a SMILES string. Entries after “also recorded” stand apart in the source; their conditions may differ.

Turning to `CC(C)C[C@H](NP(=O)(O)O[C@@H]1O[C@@H](C)[C@H](O)[C@@H](O)[C@H]1O)C(=O)N[C@@H](Cc1c[nH]c2ccccc12)C(=O)O` [phosphoramidon], the “Aβ accumulation in parallel culture wells without synthetic Aβ” value in test [1] (H4 cells, parallel to the spiking experiment) is recorded as “promoting Aβ accumulation”. In test [1] (H4 neuroglioma cells, thiorphan or captopril at concentrations greater than 1000-times the reported IC50 for the target enzymes), the “extracellular Aβ accumulation” value was “significant elevation”. The “concentration of Aβ in the conditioned medium” value in test [2] is listed as “did not affect; also recorded: unaffected”. Moreover, the “reversal of the reduction in Aβ concentration in ECE-transfected cells” value in test [3] (ECE-transfected CHO cells treated with phosphoramidon) is recorded as “completely reversed”. Moreover, the “phosphoramidon-induced accumulation of endogenous Aβ” value in test [3] (parallel cultures of ECE-1a-transfected cells without synthetic Aβ, 24 hr) was “greater than 600%”. Also, the “increase in secretion of endogenous Aβ” value in test [3] (phosphoramidon-treated ECE-transfected CHO cells, 6 hr) was 1.5- to 2 fold. In test [4], the “increase in the concentration of Aβ40 and Aβ42 in the conditioned medium” value is given as 2- to 3 fold.
